Assay results: the NIST ThermoML archive (doi:10.1016/j.fluid.2014.09.014)

Assay: refractive index (other wavelength) (dimensionless); xn = mol fraction of the nth substance listed
Settings: 101 kPa, Liquid, Standard Abbe refractometry

CC(C)OC(C)C [diisopropyl ether] + CO
refractive index
Settings	Wavelength=40.47 nm	Wavelength=435.8 nm	Wavelength=486.1 nm	Wavelength=546.1 nm	Wavelength=587.6 nm	Wavelength=589.3 nm	Wavelength=632.8 nm	Wavelength=644 nm	Wavelength=706.5 nm
298.15 K, x2 = 0	–	–	–	–	–	1.3653	1.36402	1.36373	1.36237
298.15 K, x2 = 0.0423	–	–	–	–	–	1.36528	1.364	1.3637	1.36228
298.15 K, x2 = 0.0424	–	–	–	–	–	1.36525	1.36397	1.36367	1.36226
298.15 K, x2 = 0.082	–	–	–	–	–	1.36523	1.36395	1.36365	1.36224
298.15 K, x2 = 0.0822	–	–	–	–	–	1.36524	1.36396	1.36367	1.36226
298.15 K, x2 = 0.1171	–	–	–	–	–	1.36508	1.36381	1.36352	1.3621
298.15 K, x2 = 0.1271	–	–	–	–	–	1.3651	1.36381	1.36352	1.36211
298.15 K, x2 = 0.1827	–	–	–	–	–	1.36473	1.36346	1.36317	1.36175
298.15 K, x2 = 0.2162	–	–	–	–	–	1.36528	1.364	1.3637	1.36228
298.15 K, x2 = 0.251	–	–	–	–	–	1.36465	1.36338	1.36308	1.36166
298.15 K, x2 = 0.3298	–	–	–	–	–	1.36386	1.3626	1.36231	1.36089
298.15 K, x2 = 0.3577	–	–	–	–	–	1.36246	1.36121	1.36091	1.35951
298.15 K, x2 = 0.4497	–	–	–	–	–	1.36158	1.36034	1.36004	1.35863
298.15 K, x2 = 0.4525	–	–	–	–	1.36217	1.36212	1.36087	1.36057	1.35916
298.15 K, x2 = 0.522	–	–	–	–	1.35991	1.35986	1.35863	1.35833	1.35694
298.15 K, x2 = 0.5543	–	–	–	–	1.35952	1.35947	1.35812	1.35777	1.35655
298.15 K, x2 = 0.609	–	–	–	–	1.35663	1.35658	1.35536	1.35507	1.35369
298.15 K, x2 = 0.6529	–	–	–	–	1.35515	1.3551	1.35389	1.3536	1.35223
298.15 K, x2 = 0.7504	–	–	–	–	1.3513	1.35125	1.35005	1.34978	1.34842
298.15 K, x2 = 0.804	–	–	–	–	1.3471	1.34706	1.3459	1.34562	1.34426
298.15 K, x2 = 0.807	–	–	–	–	1.34699	1.34694	1.34578	1.3455	1.34415
298.15 K, x2 = 0.8727	–	–	–	–	1.34182	1.34177	1.34062	1.34036	1.33906
298.15 K, x2 = 0.9233	–	–	–	–	1.33495	1.3349	1.33379	1.33353	1.33225
298.15 K, x2 = 0.9253	–	–	–	–	1.33679	1.33674	1.33564	1.33535	1.33407
298.15 K, x2 = 0.9527	–	–	–	–	1.33364	1.33359	1.33248	1.33222	–
298.15 K, x2 = 0.9773	–	–	–	–	1.33017	1.33012	1.32903	1.32879	1.32755
298.15 K, x2 = 0.989	–	–	–	–	1.329	1.32895	1.32786	1.32761	1.32641
298.15 K, x2 = 0.9964	–	–	–	–	1.32759	1.32754	1.32645	1.32621	1.32502
303.15 K, x2 = 0	1.37321	1.37022	1.36687	1.36406	1.3626	1.36255	1.3613	1.361	1.3596
303.15 K, x2 = 0.0423	1.37316	1.37019	–	–	–	–	–	–	–
303.15 K, x2 = 0.0424	1.37317	1.37022	1.36682	1.36403	1.36256	1.36251	1.36124	1.36094	1.35954
303.15 K, x2 = 0.082	1.3731	1.37014	1.36677	1.36396	1.3625	1.36245	1.3612	1.3609	1.35948
303.15 K, x2 = 0.0822	1.37318	1.37022	1.36685	1.36406	1.36261	1.36256	1.36129	1.36099	–
303.15 K, x2 = 0.1171	1.37301	1.37006	1.36669	1.36389	1.36245	1.3624	1.36114	1.36084	1.35943
303.15 K, x2 = 0.1271	1.37303	1.37006	1.36672	1.36392	1.36246	1.3624	1.36116	1.36086	1.35944
303.15 K, x2 = 0.1827	1.37268	1.36973	1.36639	1.36258	1.36214	1.36209	1.36085	1.36055	1.35913
303.15 K, x2 = 0.2162	1.37251	1.36956	1.36618	1.36341	1.36196	1.36191	1.36065	1.36036	1.35895
303.15 K, x2 = 0.251	1.3735	1.36955	1.36621	1.36343	1.36198	1.36193	1.36068	1.36039	1.35898
303.15 K, x2 = 0.3298	1.37186	1.36893	1.36561	1.36283	1.3614	1.36134	1.36011	1.35981	1.35839
303.15 K, x2 = 0.3577	1.37205	1.36912	1.36581	1.36302	1.36159	1.36153	1.36029	1.35999	1.35898
303.15 K, x2 = 0.4497	1.3695	1.36661	1.36334	1.36058	1.35917	1.35912	1.35789	1.3576	1.35619
303.15 K, x2 = 0.4525	1.37001	1.36711	1.36382	1.36107	1.35964	1.35959	1.35835	1.35805	1.35666
303.15 K, x2 = 0.522	1.3677	1.36484	1.36159	1.35886	1.35746	1.35741	1.35619	1.3559	1.3545
303.15 K, x2 = 0.5543	1.36716	1.36432	1.36106	1.35836	1.35695	1.3569	1.35568	1.35539	1.35399
303.15 K, x2 = 0.609	1.36428	1.36149	1.35828	1.35561	1.35421	1.35416	1.35295	1.35266	1.35129
303.15 K, x2 = 0.6529	1.36277	1.35999	1.35681	1.35414	1.35275	1.35269	1.3515	1.35122	1.34985
303.15 K, x2 = 0.7504	1.35877	1.35604	1.35295	1.35029	1.34898	1.34888	1.34771	1.34743	1.34608
303.15 K, x2 = 0.804	1.35438	1.35174	1.34869	1.34608	1.34474	1.34469	1.34354	1.34327	1.34193
303.15 K, x2 = 0.807	1.35432	1.35168	1.34861	1.34603	1.34467	1.34462	1.34346	1.3432	1.34186
303.15 K, x2 = 0.8727	1.34909	1.34651	1.34352	1.34092	1.33965	1.3396	1.33846	1.3382	1.33691
303.15 K, x2 = 0.9233	1.34198	1.3395	1.33657	1.33409	1.33279	1.33274	1.33164	1.33139	1.33015
303.15 K, x2 = 0.9253	1.34381	1.34132	1.33839	1.3359	1.33458	1.33453	1.33342	1.33317	1.3319
303.15 K, x2 = 0.9527	1.34063	1.33817	1.33525	1.33279	1.3315	1.33145	1.33035	1.33009	1.32886
303.15 K, x2 = 0.9773	1.33704	1.33466	1.33174	1.32933	1.32803	1.32799	1.32689	1.32665	1.32546
303.15 K, x2 = 0.989	1.33587	1.33351	1.33062	1.3282	1.32693	1.32688	1.32579	1.32555	1.32216
303.15 K, x2 = 0.9964	1.33483	1.33219	1.32929	1.32688	1.32561	1.32557	1.32451	1.32427	1.32308
308.15 K, x2 = 0	1.37035	–	–	–	–	–	–	–	–
308.15 K, x2 = 0.0423	1.37024	–	–	–	–	–	–	–	–
308.15 K, x2 = 0.0424	1.37025	–	–	–	–	–	–	–	–
308.15 K, x2 = 0.082	1.37021	–	–	–	–	–	–	–	–
